Source: ChEMBL document CHEMBL1201862, “PubChem BioAssay data set” (2004)
The source made the active and inactive calls.

How the values were obtained:
[1] = target: Tumor necrosis factor (Homo sapiens, UniProt P01375); experiment: TNFa-triggered NF-kB activation inhibitors, SAR follow-up, cell-based, revised (AID 2337); assay type: functional
[2] = target: Nucleotide-binding oligomerization domain-containing protein 1 (Homo sapiens, UniProt Q9Y239); experiment: NOD1 signaling inhibitors, SAR follow-up, revised (AID 2333); assay type: functional
Sequence of Nucleotide-binding oligomerization domain-containing protein 1 (Q9Y239 whole entry, the tested form may be a part): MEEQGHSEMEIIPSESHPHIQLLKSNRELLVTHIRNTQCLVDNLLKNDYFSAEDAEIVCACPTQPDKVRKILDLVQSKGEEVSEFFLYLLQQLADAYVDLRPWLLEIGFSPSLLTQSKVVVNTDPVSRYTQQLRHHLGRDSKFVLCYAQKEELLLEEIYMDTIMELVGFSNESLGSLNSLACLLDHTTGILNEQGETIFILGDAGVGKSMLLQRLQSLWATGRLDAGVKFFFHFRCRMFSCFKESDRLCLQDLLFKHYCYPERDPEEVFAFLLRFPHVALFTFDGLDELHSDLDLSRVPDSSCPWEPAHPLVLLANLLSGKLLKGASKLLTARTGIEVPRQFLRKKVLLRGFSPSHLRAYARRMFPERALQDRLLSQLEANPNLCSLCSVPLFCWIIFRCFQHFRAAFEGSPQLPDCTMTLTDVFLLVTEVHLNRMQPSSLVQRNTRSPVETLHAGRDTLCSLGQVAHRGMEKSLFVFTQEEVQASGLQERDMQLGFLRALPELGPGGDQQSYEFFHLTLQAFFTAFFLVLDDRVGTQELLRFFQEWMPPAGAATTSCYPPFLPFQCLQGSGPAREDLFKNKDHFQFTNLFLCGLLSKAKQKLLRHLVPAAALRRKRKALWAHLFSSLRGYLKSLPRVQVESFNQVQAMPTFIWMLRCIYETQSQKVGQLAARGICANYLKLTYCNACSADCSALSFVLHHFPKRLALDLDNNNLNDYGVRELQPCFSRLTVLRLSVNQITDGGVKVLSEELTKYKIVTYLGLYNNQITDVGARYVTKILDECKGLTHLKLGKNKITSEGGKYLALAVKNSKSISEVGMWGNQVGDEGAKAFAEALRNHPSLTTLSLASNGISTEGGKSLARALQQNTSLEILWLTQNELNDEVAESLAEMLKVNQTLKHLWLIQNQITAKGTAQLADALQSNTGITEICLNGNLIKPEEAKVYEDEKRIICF

[3] = test system: INS1; experiment: beta cell apoptosis inhibitors, cytokine rescue, dose response, luminescence, retest (AID 449756); assay type: functional, cell-based; settings: Rattus norvegicus;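 also: cell death triggered by IL-1 beta plus TNF-alpha plus IFN-gamma mixture; protective hits raise ATP signal compared with cytokine alone wells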
[4] = test system: HEK293; experiment: cells; settings: Homo sapiens;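 also: cells exposed to compound for 14 hours overnight before viability readout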
[5] = Luminescence Cell-Based Dose Confirmation HTS to Identify Activators of 5'UTR Stem-Loop Driven Alpha-Synuclein mRNA Translation in H4 Neuroglioblastoma Cells. [Related pubchem assays: 1829 (Project Summary), 1814 (Primary HTS)]; assay type: functional
[6] = Luminescence Cell-Based Dose Response HTS to Identify Activators of Luciferase Translation or Activity in H4 […] Cells. [Related pubchem assays: 1829 (Project Summary), 1814 (Primary HTS)]; assay type: functional
[7] = test system: H4; experiment: Luminescence Cell-Based Dose Response HTS to Identify Activators of 5'UTR Stem-Loop Driven Prion Protein mRNA Translation in H4 Neuroglioblastoma Cells. [Related pubchem assays: 1829 (Project Summary), 1814 (Primary HTS)]; assay type: functional; settings: Homo sapiens
[8] = target: Keap1/Nrf2 (Homo sapiens, UniProt Q14145); experiment: Keap1-Nrf2 protein-protein interaction inhibitors, dose response, biochemical, fluorescence polarization, cherry-picked samples (AID 588683)
Sequence of Keap1/Nrf2 (Q16236 whole entry): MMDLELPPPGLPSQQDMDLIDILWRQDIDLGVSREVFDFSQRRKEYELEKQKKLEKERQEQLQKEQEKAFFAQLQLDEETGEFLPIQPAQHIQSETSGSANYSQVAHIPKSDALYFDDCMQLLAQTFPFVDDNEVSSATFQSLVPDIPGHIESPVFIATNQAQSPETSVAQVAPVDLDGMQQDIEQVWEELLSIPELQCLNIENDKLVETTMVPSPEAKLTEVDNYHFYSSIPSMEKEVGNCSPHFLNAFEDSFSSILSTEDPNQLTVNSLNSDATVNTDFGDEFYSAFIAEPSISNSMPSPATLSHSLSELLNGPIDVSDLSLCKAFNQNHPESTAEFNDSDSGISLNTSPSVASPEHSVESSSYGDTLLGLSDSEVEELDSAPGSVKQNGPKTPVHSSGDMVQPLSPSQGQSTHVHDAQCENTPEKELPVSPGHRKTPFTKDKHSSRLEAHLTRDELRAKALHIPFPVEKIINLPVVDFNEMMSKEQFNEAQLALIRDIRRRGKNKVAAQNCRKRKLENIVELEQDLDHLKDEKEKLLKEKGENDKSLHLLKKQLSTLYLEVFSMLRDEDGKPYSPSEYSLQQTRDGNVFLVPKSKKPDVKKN
Sequence of Keap1/Nrf2 (Q14145 whole entry): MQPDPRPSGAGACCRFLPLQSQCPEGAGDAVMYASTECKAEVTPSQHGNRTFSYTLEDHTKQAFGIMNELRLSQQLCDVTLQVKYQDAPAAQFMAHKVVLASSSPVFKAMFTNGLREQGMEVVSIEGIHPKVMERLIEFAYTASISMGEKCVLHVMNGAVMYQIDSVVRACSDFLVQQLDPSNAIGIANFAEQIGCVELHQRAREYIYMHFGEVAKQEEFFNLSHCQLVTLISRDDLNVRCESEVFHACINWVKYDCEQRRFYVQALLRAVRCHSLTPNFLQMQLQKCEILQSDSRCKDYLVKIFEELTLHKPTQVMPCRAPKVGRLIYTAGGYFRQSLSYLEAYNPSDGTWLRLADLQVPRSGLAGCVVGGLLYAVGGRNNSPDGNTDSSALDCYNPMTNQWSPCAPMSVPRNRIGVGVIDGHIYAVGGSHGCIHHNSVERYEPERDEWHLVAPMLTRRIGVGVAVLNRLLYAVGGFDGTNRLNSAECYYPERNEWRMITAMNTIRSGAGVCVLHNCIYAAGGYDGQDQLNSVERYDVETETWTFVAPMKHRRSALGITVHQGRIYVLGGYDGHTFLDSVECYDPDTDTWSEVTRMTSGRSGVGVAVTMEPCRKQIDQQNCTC

[9] = target: T1, Corticotropin-releasing factor receptor 2/Corticotropin-releasing factor-binding protein (Homo sapiens, UniProt P24387+Q13324); experiment: activators of CRF receptor 2 with binding protein – uHTS hits, confirmation (AID 602473); assay type: functional; settings: read-out: EC50_Mean
T1 sequence (Q13324 whole entry): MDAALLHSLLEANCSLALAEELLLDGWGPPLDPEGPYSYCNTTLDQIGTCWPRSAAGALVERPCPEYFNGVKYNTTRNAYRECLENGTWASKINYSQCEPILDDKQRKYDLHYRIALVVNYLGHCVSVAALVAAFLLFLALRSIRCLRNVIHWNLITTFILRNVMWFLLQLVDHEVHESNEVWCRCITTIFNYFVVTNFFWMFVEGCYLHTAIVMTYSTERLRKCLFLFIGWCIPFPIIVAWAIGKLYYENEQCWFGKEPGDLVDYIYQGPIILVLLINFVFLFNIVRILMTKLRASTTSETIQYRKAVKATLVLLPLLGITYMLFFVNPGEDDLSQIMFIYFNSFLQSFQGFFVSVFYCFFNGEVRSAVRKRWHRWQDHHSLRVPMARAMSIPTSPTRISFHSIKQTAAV
T1 sequence (P24387 whole entry): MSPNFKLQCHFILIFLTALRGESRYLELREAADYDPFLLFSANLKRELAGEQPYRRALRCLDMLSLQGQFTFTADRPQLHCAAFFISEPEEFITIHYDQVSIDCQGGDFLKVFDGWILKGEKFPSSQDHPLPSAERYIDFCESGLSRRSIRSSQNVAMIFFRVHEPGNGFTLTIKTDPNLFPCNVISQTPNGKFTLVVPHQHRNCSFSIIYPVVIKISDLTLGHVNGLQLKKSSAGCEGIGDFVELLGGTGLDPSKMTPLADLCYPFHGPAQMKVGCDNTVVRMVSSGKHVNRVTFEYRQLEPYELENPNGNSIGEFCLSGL

Sequence of Tumor necrosis factor (P01375 whole entry, the tested form may be a part): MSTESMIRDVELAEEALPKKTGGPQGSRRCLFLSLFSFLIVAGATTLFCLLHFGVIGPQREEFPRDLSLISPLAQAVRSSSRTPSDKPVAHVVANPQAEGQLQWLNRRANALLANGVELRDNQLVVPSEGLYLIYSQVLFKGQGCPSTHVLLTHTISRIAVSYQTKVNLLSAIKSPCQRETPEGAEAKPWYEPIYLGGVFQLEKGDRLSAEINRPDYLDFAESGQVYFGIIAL

Compound	IC50 [1]	IC50 [2]	AC50 [3]	IC50 [4]	EC50 [5]	EC50 [6]	EC50 [7]	AC50 [8]	EC50 [9]
CC(=O)c1ccc(N2CCN(S(=O)(=O)c3ccc4c(c3)CC(C)N4C(C)=O)CC2)cc1 (stereo not given)	6.5 µM (active)	4.42 µM (active)	6.79 µM (active)	> 20 µM (inactive)	–	–	–	–	–
O=S(=O)([N-]c1nc2ccccc2nc1-[n+]1ccc(-c2ccncc2)cc1)c1ccccc1	–	–	–	–	55 µM (active)	9.78 µM (active)	> 120 µM (not active)	31.5 µM (active)	> 53 µM (inactive)
CCN1C(=O)NC(=O)/C(=C\c2cn(CC(=O)N3CCCCC3)c3ccccc23)C1=O	–	–	–	–	–	–	–	35.9 µM (active)	–
